The format of this data set is physicochemical. Particulars: temperature in which 50 mg of substance is dissolved in 1 ml of a 1:4 benzyl benzoate/castor oil mixture; lower temperature = better solubility.
Take “(Z)-6′-(4-Cyanophenyl)-9,11α-dihydro-17α-hydroxy-17α-[3-[(1-oxododecyl)oxy]-1-propenyl]-4′H-naphtho[3′,2′,1′:10,9,11]estr-4-en-3-one [Example 5]”: the Solubility was 23 °C.
Then “(Z)-6′-(4-Cyanophenyl)-9,11α-dihydro-17β-hydroxy-17α-[3-[(1-oxoheptyl)oxy]-1-propenyl]-4′H-naphtho[3′,2′,1′:10,9,11]estr-4-en-3-one [Example 3]”, with 23 °C; and “(Z)-6′-(4-Cyanophenyl)-9,11α-dihydro-17β-hydroxy-17α-[3-[(1-oxononyl)oxy]-1-propenyl]-4′H-naphtho[3′,2′,1′:10,9,11]estr-4-en-3-one [Example 4]”, with 23 °C.
In the case of “(Z)-6′-(4-Cyanophenyl)-9,11α-dihydro-17β-hydroxy-17α-[3-[(1-oxopentyl)oxy]-1-propenyl]-4′H-naphtho[3′,2′,1′:10,9,11]estr-4-en-3-one [Example 2]”, the Solubility worked out at 50 °C.
In the case of “(Z)-6′-(4-Cyanophenyl)-17α-[3-(3-cyclopentyl-1-oxopropoxy)-1-propenyl]-9,11α-dihydro-17β-hydroxy-4′H-naphtho[3′,2′,1′:10,9,11]estr-4-en-3-one [Example 8]” it was 23 °C; in that of “(Z)-6′-(4-Fluorophenyl)-17α-(3-hydroxyprop-1-enyl)-9, 11α-dihydro-17β-hydroxy-4′-naphtho]3′,2′,1′:10,9,11]estr-4-en-3-one [Ref. 4, reference compound]”, 100 °C; in that of “(Z)-9,11α-Dihydro-17α-[3-(1,4-dioxo-4-ethoxybutoxy)-1-propenyl]-17β-hydroxy-6′-(3-pyridinyl)-4′H-naphtho[3′,2′,1′:10,9,11]estr-4-en-3-one [Example 22]”, 50 °C.
Then “(Z)-9,11α-Dihydro-17α-[3-(3,3-dimethyl-1-oxobutoxy)-1-propenyl]-6′-(3-pyridinyl)-17βhydroxy-4′H-naphtho[3′,2′,1′:10,9,11]estr-4-en-3-one [Example 21]”, with 50 °C.
In the case of “(Z)-9,11α-Dihydro-17β-hydroxy-17α-[3-(1-oxopropoxy)-1-propenyl]-6′-(3-pyridinyl)-4′H-naphtho[3′,2′,1′:10,9,11]estr-4-en-3-one [Example 18]” it was 50 °C; in that of “(Z)-9,11α-Dihydro-17β-hydroxy-17α-[3-[(1-oxopentyl)oxy]-1-propenyl]-6′-(3-pyridinyl)-4′H-naphtho[3′,2′,1′:10,9,11]estr-4-en-3-one [Example 19]”, 50 °C.
As to “[S-(Z)]-6′-(4-Cyanophenyl)-9,11α-dihydro-17α-[3-[2-[[(1,1-dimethylethoxy)carbonyl]amino]-3-methyl-1-oxobutoxy]-17β-hydroxy-4′H-naphtho[3′,2′,1′:10,9,11]estr-4-en-3-one [Example 17]”, the Solubility came out at 50 °C.
In the case of “[S-(Z)]-6′-(4-Fluorophenyl)-9,11α-dihydro-17α-[3-[2-[[(1,1-dimethylethoxy)carbonyl]amino]-1-oxopropoxy]-1-propenyl]-17β-hydroxy-4′H-naphtho[3′,2′,1′:10,9,11]estr-4-en-3-one [Example 41]” it was 23 °C; in that of “[S-(Z)]-9,11α-Dihydro-17α-[3-[2-[[(1,1-dimethylethoxy)carbonyl]amino]-1-oxopropoxy]-1-propenyl]-17β-hydroxy-6′-(3-pyridinyl)-4′H-naphtho[3′,2′,1′:10,9,11]estr-4-en-3-one [Example 24]”, 50 °C; in that of “[S-(Z)]-9,11α-Dihydro-17α-[3-[2-[[(1,1-dimethylethoxy)carbonyl]amino]-3-methyl-1-oxobutoxy]-1-propenyl]-17βhydroxy-6′-(3-pyridinyl)-4′H-naphtho[3′,2′,1′:10,9,11]estr-4-en-3-one [Example 25]”, 50 °C.
Take “[S-(Z)]-9,11α-Dihydro-17α-[3-[[[(1,1-dimethylethoxy)carbonyl]amino]acetyloxy]-1-propenyl]-17β-hydroxy-6′-(3-pyridinyl)-4′H-naphtho[3′,2′,1′:10,9,11]estr-4-en-3-one [Example 35]”: the Solubility stood at 23 °C.
On to “[S-(Z)]-17α-[3-(2-Amino-1-oxopropoxy)-1-propenyl]-6′-(4-fluorophenyl)-9,11α-dihydro-17β-hydroxy-4′H-naphtho[3′,2′,1′:10,9,11]estr-4-en-3-one [Example 40]”, for which the Solubility was 50 °C.
In the case of “[S-(Z)]-17α-[3-(2-Amino-3-methyl-1-oxobutoxy)-1-propenyl]-6′-(4-cyanophenyl)-9,11α-dihydro-17β-hydroxy-4′H-naphtho[3′,2′,1′:10,9,11]estr-4-en-3-one [Example 16]” it was 100 °C.
